Data reported in ChEMBL document CHEMBL1201862, “PubChem BioAssay data set” (2004).
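Assay format: 96-well plates, 48-hour exposure. Abbreviation: GI50, concentration required for 50% inhibition of growth.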 The source made the active and inactive calls. No stated cut-off is given here; in the data, active = GI50 up to about 1.1 µM and inactive = higher.

Legend:
Test in all cases: NCI anticancer screen, dose series, 48 h
A498 = test system: A498
CAKI-1 = test system: CAKI-1
DU-145 = test system: DU-145
EKVX = test system: EKVX
HCT-15 = test system: HCT-15
HOP-92 = test system: HOP-92
Hs-578T = test system: Hs-578T
KM12 = test system: KM12
LOX IMVI = test system: LOX IMVI
M14 = test system: M14
NCI-H23 = test system: NCI-H23
NCI-H460 = test system: NCI-H460
NCI-H522 = test system: NCI-H522
OVCAR-3 = test system: OVCAR-3
OVCAR-8 = test system: OVCAR-8
RPMI-8226 = test system: RPMI-8226
RXF 393 = test system: RXF 393
SK-MEL-5 = test system: SK-MEL-5
U-251 = test system: U-251
UACC-62 = test system: UACC-62

SMILES | GI50 (A498) | GI50 (CAKI-1) | GI50 (DU-145) | GI50 (EKVX) | GI50 (HCT-15) [µM] | GI50 (HOP-92) | GI50 (Hs-578T) | GI50 (KM12) | GI50 (LOX IMVI) | GI50 (M14) | GI50 (NCI-H23) | GI50 (NCI-H460) | GI50 (NCI-H522) | GI50 (OVCAR-3) | GI50 (OVCAR-8) | GI50 (RPMI-8226) | GI50 (RXF 393) | GI50 (SK-MEL-5) | GI50 (U-251) | GI50 (UACC-62)
Cn1c2ccccc2c(=O)c2c(O)cc3c(c21)CC(C1(C)CO1)O3 (stereo not given) | 11.2 µM (inactive) | 2.99 µM (inactive) | 10.7 µM (inactive) | 3.08 µM (inactive) | 4.69 | 9.08 µM (inactive) | 2 µM (inactive) | 2.41 µM (inactive) | < 0.0111 µM (active) | 1.51 µM (inactive) | 2.02 µM (inactive) | 3.29 µM (inactive) | 2.93 µM (inactive) | 3.61 µM (inactive) | 0.966 µM (active) | 2.82 µM (inactive) | 1.17 µM (inactive) | 1.79 µM (inactive) | 3.16 µM (inactive) | 2.16 µM (inactive)
CC(C)/C(Cl)=N/OC(=O)Nc1cccc(C(F)(F)F)c1 | 18.7 µM (inactive) | 1.75 µM (inactive) | 17.3 µM (inactive) | 2.61 µM (inactive) | 1.82 | 1.75 µM (inactive) | 9.55 µM (inactive) | 15.3 µM (inactive) | 2.51 µM (inactive) | 3.52 µM (inactive) | 14.5 µM (inactive) | 17.8 µM (inactive) | 0.14 µM (active) | 3.84 µM (inactive) | 14.5 µM (inactive) | 1.56 µM (inactive) | 5.9 µM (inactive) | 8.05 µM (inactive) | 17 µM (inactive) | 13.6 µM (inactive)
O=[N+]([O-])c1nccn1CCCNCCCn1ccnc1[N+](=O)[O-] | > 100 µM (inactive) | > 100 µM (inactive) | > 100 µM (inactive) | > 100 µM (inactive) | > 100 | > 100 µM (inactive) | > 100 µM (inactive) | > 100 µM (inactive) | 74.6 µM (inactive) | > 100 µM (inactive) | > 100 µM (inactive) | > 100 µM (inactive) | > 100 µM (inactive) | > 100 µM (inactive) | > 100 µM (inactive) | > 100 µM (inactive) | > 100 µM (inactive) | > 100 µM (inactive) | > 100 µM (inactive) | > 100 µM (inactive)
CN(C)Cc1c(O)ccc2c1c1c(n2C)C(=O)c2ccccc2C1=O | 4.43 µM (inactive) | 4.52 µM (inactive) | 3.75 µM (inactive) | 13.5 µM (inactive) | 4.49 | 12.6 µM (inactive) | 18.7 µM (inactive) | 3.2 µM (inactive) | 1.79 µM (inactive) | 11.2 µM (inactive) | 5.12 µM (inactive) | 1.85 µM (inactive) | 3.95 µM (inactive) | 4.75 µM (inactive) | 5.46 µM (inactive) | 2.67 µM (inactive) | 12.4 µM (inactive) | 6.49 µM (inactive) | 4.52 µM (inactive) | 3.55 µM (inactive)
CN(C)/C=N/S(=O)(=O)c1nn2c(C=O)c(-c3ccccc3)nc2s1 | 67.6 µM (inactive) | 0.658 µM (active) | 23.4 µM (inactive) | 30.5 µM (inactive) | 9.46 | 17.5 µM (inactive) | 19.5 µM (inactive) | 22.6 µM (inactive) | 14.7 µM (inactive) | 2.51 µM (inactive) | 19.7 µM (inactive) | 20.8 µM (inactive) | 3.37 µM (inactive) | 8.32 µM (inactive) | 8.41 µM (inactive) | 3.43 µM (inactive) | 13 µM (inactive) | 11.5 µM (inactive) | 15.9 µM (inactive) | 18.2 µM (inactive)
ClCCc1ccccc1CC1=NCCc2ccccc21 | 37.6 µM (inactive) | 33 µM (inactive) | > 100 µM (inactive) | 22.1 µM (inactive) | 33 | 28.1 µM (inactive) | 28.5 µM (inactive) | 29.3 µM (inactive) | 76.7 µM (inactive) | 24.5 µM (inactive) | 21.5 µM (inactive) | 25.8 µM (inactive) | 16.7 µM (inactive) | 28.8 µM (inactive) | 28.4 µM (inactive) | 16.3 µM (inactive) | 21.7 µM (inactive) | 22.8 µM (inactive) | 31.8 µM (inactive) | 28.6 µM (inactive)
COc1ccc2c(c1)c1c3c(ccc4ncn2c43)N(CCO)CCN=1 | 0.215 µM (active) | 0.247 µM (active) | 0.282 µM (active) | 0.33 µM (active) | 0.195 | 2.07 µM (inactive) | 0.274 µM (active) | 0.26 µM (active) | 0.151 µM (active) | 0.271 µM (active) | 0.191 µM (active) | 0.132 µM (active) | 0.106 µM (active) | 0.213 µM (active) | 0.0927 µM (active) | 0.281 µM (active) | 0.211 µM (active) | 0.188 µM (active) | 0.254 µM (active) | 0.216 µM (active)
O=[N+]([O-])c1ccc(C2CC(c3ccccc3Cl)=Nc3ccccc3[S+]2[O-])cc1 (stereo not given) | 2.34 µM (inactive) | 2.48 µM (inactive) | 15.5 µM (inactive) | 15 µM (inactive) | 2.21 | 15.3 µM (inactive) | 2.75 µM (inactive) | 3.82 µM (inactive) | 2.07 µM (inactive) | 5.71 µM (inactive) | 4.13 µM (inactive) | 4.27 µM (inactive) | 1.15 µM (inactive) | 3.48 µM (inactive) | 2.87 µM (inactive) | 1.77 µM (inactive) | 1.8 µM (inactive) | 5.41 µM (inactive) | 3.05 µM (inactive) | 2.69 µM (inactive)
CC(=O)Oc1ccc(/C=C/C(=O)O[C@@H](C(=O)O)[C@@H](OC(=O)/C=C/c2ccc(OC(C)=O)c(OC(C)=O)c2)C(=O)O)cc1OC(C)=O | > 100 µM (inactive) | > 100 µM (inactive) | > 100 µM (inactive) | > 100 µM (inactive) | > 100 | > 100 µM (inactive) | > 100 µM (inactive) | > 100 µM (inactive) | > 100 µM (inactive) | > 100 µM (inactive) | > 100 µM (inactive) | > 100 µM (inactive) | > 100 µM (inactive) | > 100 µM (inactive) | > 100 µM (inactive) | > 100 µM (inactive) | > 100 µM (inactive) | > 100 µM (inactive) | > 100 µM (inactive) | > 100 µM (inactive)
